Read-outs that look alike come from different tables or passages of the source.
System: human VEGF
Experiment: VEGF protein assay: ELISA of secreted VEGF in conditioned medium of oligonucleotide-treated cells
Format: cell-based
Conditions: cells treated 5 hours with oligonucleotide and Cellfectin, secreted VEGF in supernatant, 100% = Cellfectin without oligonucleotide, read-out: IC50 for VEGF secretion
Protocol: The cells are plated in 96-well plates at 30,000 cells/well, 150 ul medium per well (medium depends on cell type). The next day, Cellfectin (Gibco-BRL) is diluted to 400 ug/ml in water (solution A). Oligonucleotides are diluted to 40X the final desired concentration in water (solution B). Equal amounts of solutions A and B are mixed, to give the desired volume of a solution that is 200 µg/ml Cellfectin and 20X oligonucleotide, and the mixture left at room temperature for 30 minutes. After 30 minutes, 19 volumes of Optimem (Gibco-BRL) is added to give a final solution that is 10 µg/ml Cellfectin and 1X oligonucleotide (solution C). Medium is removed from the cells, the wells are washed 2X with Optimem, and 150 µl solution C added to each well. The plates are then returned to the incubator (37°C, 5% CO2). After 5 hours, the Cellfectin/oligonucleotide solution is removed and replaced with 150 µl of regular growth medium. VEGF protein and mRNA assays are performed beginning 19 hours later.
Samples (from example 4) of conditioned medium are taken from the desired wells and assayed for the presence of human VEGF using the human VEGF ELISA kit from R & D systems.The assay protocol is the one provided with the kit.
The IC50s are calculated based on a value of 100% for the amount of VEGF protein or mRNA in cells treated with Cellfectin but no oligonucleotide.

| Substance | IC50 (listed as ON54) | IC50 |
| --- | --- | --- |
| 5'-p*-(2'5'-rA*rA*rA*rA)*(teg) G*C*G C*T G A*T*A G A*C*A T*C*C*A*T*G -3' (GCGCTGATAGACATCCATG; 5'-phosphate 2'5' rA4, teg linker, all-2'-O-methyl, chemistry not fully specified) [ON 54, 2'5'(rA)4-conjugate all-2'-O-methyl] | ~230 nM | 230 nM |
| 5'-p*(2'5'-Co Co Co Co)(teg) G*C*G C*T G A*T*A G A*C*A T*C*C*A*T*G -3' (GCGCTGATAGACATCCATG; chemistry not fully specified) [ON 53, 2'5(Co)4-conjugate all-2'-O-methyl] | – | 1500 nM |

Source: patent publication EP0978561A1, “Antisense oligonucleotides for the inhibition of VEGF expression” (Hoechst Marion Roussel Deutschland GmbH, priority 1998, dated 2000)
